Results as given in patent US20160219881A1, “HERBICIDALLY ACTIVE 2-HALOGEN-4-ALKYNYL-PHENYL-PYRAZOLIDINE-DIONE OR PYRROLIDINE-DIONE DERIVATIVES” (SYNGENTA LIMITED, priority 2013, published 2016).

Legend:
Assay in all cases: Biological Example 3 (Test 2 glasshouse assay), post-emergence herbicidal activity
Type in all cases: in vivo
ZEAMX = system: ZEAMX
Procedure: Seeds of a variety of monocotyledonous and dicotyledonous test plants are sown in standard soil in pots. The plants are cultivated for one day (for pre-emergence) or for about 12 days (range=10-13 days) (for post-emergence) under controlled conditions in a glasshouse (warm climate species at 24/18° C., cool climate species at 20/16° C., both at day/night; 16 hours light; 65% humidity). An “instant formulation”, known as the “IF50”, containing 50 g/litre (i.e. 5% w/v) of the “technical” (i.e. unformulated) active ingredient is prepared by dissolving the active ingredient in a mixture of organic solvents and emulsifier, details of which are provided in the Table below. This IF50 is then mixed with a small, variable amount of acetone to aid dissolution, before addition of a 0.2% v/v aqueous solution of the adjuvant X-77 (which is a mixture of alkyl aryl polyoxyethylene glycols and free fatty acids in isopropanol, CAS Registry number 11097-66-8), as the aqueous diluent, to form an aqueous spray solution which contains a predetermined concentration of the active ingredient (which varies depending on the application rate of the active ingredient to the plants) and 0.2% v/v of the adjuvant X-77. This aqueous spray solution is then sprayed onto the plants, after one day's cultivation (for pre-emergence) or after about 12 days' cultivation (for post-emergence). The test plants are then grown on, in a glasshouse (greenhouse) under controlled conditions (at either 24/18° C. or 20/16° C. (day/night) as mentioned above; 16 hours light; 65% humidity) and are watered twice daily. Either 15 days after application of the test compound (15 DAA) (for post-emergence), or 20 days after application of the test compound (20 DAA) (for pre-emergence), the test plants are evaluated visually, and an assessed percentage phytotoxicity score is given for each compound application on each plant species (where 100%=total damage to plant; 0%=no damage to plant).

Lolium perenne (LOLPE) = system: Lolium perenne (LOLPE)
Procedure: (§1) Seeds of a variety of monocotyledonous and dicotyledonous test plants are sown in standard soil in pots. The plants are cultivated for one day (for pre-emergence) or for about 12 days (range=10-13 days) (for post-emergence) under controlled conditions in a glasshouse (warm climate species at 24/18° C., cool climate species at 20/16° C., both at day/night; 16 hours light; 65% humidity).
(§2) An “instant formulation”, known as the “IF50”, containing 50 g/litre (i.e. 5% w/v) of the “technical” (i.e. unformulated) active ingredient is prepared by dissolving the active ingredient in a mixture of organic solvents and emulsifier, details of which are provided in the Table below. This IF50 is then mixed with a small, variable amount of acetone to aid dissolution, before addition of a 0.2% v/v aqueous solution of the adjuvant X-77 (which is a mixture of alkyl aryl polyoxyethylene glycols and free fatty acids in isopropanol, CAS Registry number 11097-66-8), as the aqueous diluent, to form an aqueous spray solution which contains a predetermined concentration of the active ingredient (which varies depending on the application rate of the active ingredient to the plants) and 0.2% v/v of the adjuvant X-77. This aqueous spray solution is then sprayed onto the plants, after one day's cultivation (for pre-emergence) or after about 12 days' cultivation (for post-emergence).
(§3) The test plants are then grown on, in a glasshouse (greenhouse) under controlled conditions (at either 24/18° C. or 20/16° C. (day/night) as mentioned above; 16 hours light; 65% humidity) and are watered twice daily. Either 15 days after application of the test compound (15 DAA) (for post-emergence), or 20 days after application of the test compound (20 DAA) (for pre-emergence), the test plants are evaluated visually, and an assessed percentage phytotoxicity score is given for each compound application on each plant species (where 100%=total damage to plant; 0%=no damage to plant).
(§4) Cool climate crop plants: Triticum aestivum (TRZAW, winter wheat), Brassica napus (BRSNN, rape, also called oilseed rape or rapeseed), Beta vulgaris (BEAVA, sugar beet). Warm climate crop plants: Glycine max (GLXMA, soybean). Cool climate (“cool season”) grassy monocotyledonous weeds: Alopecurus myosuroides (ALOMY), Avena fatua (AVEFA), Lolium perenne (LOLPE). Warm climate (“warm season”) grassy monocotyledonous weeds: Setaria faberi (SETFA), SORVU (Sorghum bicolor (L.) Moench ssp. Bicolor, or Sorghum vulgare Pers.), Digitaria sanguinalis (DIGSA), Echinochloa crus-galli (ECHCG), and Brachiaria plantaginea (BRAPL).

[1] = system: Digitaria sanguinalis (DIGSA)
Procedure: as §1, §2, §3, §4

[2] = system: Beta vulgaris (BEAVA, sugar beet)
Procedure: as §1, §2, §3, §4

Setaria faberi (SETFA) = system: Setaria faberi (SETFA)
Procedure: as §1, §2, §3, §4

[3] = system: Brassica napus (BRSNN, rape)
Procedure: as §1, §2, §3, §4

[4] = system: Glycine max (GLXMA, soybean)
Procedure: as §1, §2, §3, §4

[5] = system: Alopecurus myosuroides (ALOMY)
Procedure: as §1, §2, §3, §4

[6] = system: Triticum aestivum (TRZAW, winter wheat)
Procedure: as §1, §2, §3, §4

[7] = system: Echinochloa crus-galli (ECHCG)
Procedure: as §1, §2, §3, §4

[8] = system: Brachiaria plantaginea (BRAPL)
Procedure: as §1, §2, §3, §4

[9] = system: SORVU (Sorghum bicolor (L.) Moench ssp. Bicolor, or Sorghum vulgare Pers.)
Procedure: as §1, §2, §3, §4

CC#Cc1cc(C)c(-c2c(OC(=O)C(C)(C)C)n3n(c2=O)CCOCC3)c(C)c1 [Compound P4]
60%: Post-Emergence Herbicidal Activity (Percentage Phytotoxicity) GLXMA ([4]; 30 g/ha) | Post-Emergence Herbicidal Activity (Percentage Phytotoxicity) ALOMY ([5]; 30 g/ha) | Post-Emergence Herbicidal Activity (Percentage Phytotoxicity) ECHCG ([7]; 8 g/ha (rate by row order))
80%: Post-Emergence Herbicidal Activity (Percentage Phytotoxicity) DIGSA ([1]; 8 g/ha (rate by row order)) | Post-Emergence Herbicidal Activity (Percentage Phytotoxicity) SETFA (Setaria faberi (SETFA); 30 g/ha (rate by row order)) | Post-Emergence Herbicidal Activity (Percentage Phytotoxicity) BRSNN ([3]; 30 g/ha) | Post-Emergence Herbicidal Activity (Percentage Phytotoxicity) BRSNN ([3]; 125 g/ha) | Post-Emergence Herbicidal Activity (Percentage Phytotoxicity) TRZAW ([6]; 125 g/ha) | Post-Emergence Herbicidal Activity (Percentage Phytotoxicity) SORVU ([9]; 30 g/ha (rate by row order))
90%: Post-Emergence Herbicidal Activity (Percentage Phytotoxicity) ZEAMX (ZEAMX; 30 g/ha (rate by row order)) | Post-Emergence Herbicidal Activity (Percentage Phytotoxicity) DIGSA ([1]; 30 g/ha (rate by row order)) | Post-Emergence Herbicidal Activity (Percentage Phytotoxicity) DIGSA ([1]; 125 g/ha (rate by row order)) | Post-Emergence Herbicidal Activity (Percentage Phytotoxicity) SETFA (Setaria faberi (SETFA); 125 g/ha (rate by row order)) | Post-Emergence Herbicidal Activity (Percentage Phytotoxicity) ECHCG ([7]; 30 g/ha (rate by row order)) | Post-Emergence Herbicidal Activity (Percentage Phytotoxicity) BRAPL ([8]; 8 g/ha (rate by row order)) | Post-Emergence Herbicidal Activity (Percentage Phytotoxicity) BRAPL ([8]; 30 g/ha (rate by row order))
50%: Post-Emergence Herbicidal Activity (Percentage Phytotoxicity) LOLPE (Lolium perenne (LOLPE); 125 g/ha) | Post-Emergence Herbicidal Activity (Percentage Phytotoxicity) BEAVA ([2]; 125 g/ha) | Post-Emergence Herbicidal Activity (Percentage Phytotoxicity) GLXMA ([4]; 8 g/ha)
30%: Post-Emergence Herbicidal Activity (Percentage Phytotoxicity) ZEAMX (ZEAMX; 8 g/ha (rate by row order)) | Post-Emergence Herbicidal Activity (Percentage Phytotoxicity) LOLPE (Lolium perenne (LOLPE); 8 g/ha) | Post-Emergence Herbicidal Activity (Percentage Phytotoxicity) BEAVA ([2]; 8 g/ha)
70%: Post-Emergence Herbicidal Activity (Percentage Phytotoxicity) SETFA (Setaria faberi (SETFA); 8 g/ha (rate by row order)) | Post-Emergence Herbicidal Activity (Percentage Phytotoxicity) BRSNN ([3]; 8 g/ha) | Post-Emergence Herbicidal Activity (Percentage Phytotoxicity) GLXMA ([4]; 125 g/ha) | Post-Emergence Herbicidal Activity (Percentage Phytotoxicity) ALOMY ([5]; 125 g/ha) | Post-Emergence Herbicidal Activity (Percentage Phytotoxicity) SORVU ([9]; 8 g/ha (rate by row order))
10%: Post-Emergence Herbicidal Activity (Percentage Phytotoxicity) TRZAW ([6]; 8 g/ha)
100%: Post-Emergence Herbicidal Activity (Percentage Phytotoxicity) ZEAMX (ZEAMX; 125 g/ha (rate by row order)) | Post-Emergence Herbicidal Activity (Percentage Phytotoxicity) ECHCG ([7]; 125 g/ha (rate by row order)) | Post-Emergence Herbicidal Activity (Percentage Phytotoxicity) BRAPL ([8]; 125 g/ha (rate by row order)) | Post-Emergence Herbicidal Activity (Percentage Phytotoxicity) SORVU ([9]; 125 g/ha (rate by row order))
40%: Post-Emergence Herbicidal Activity (Percentage Phytotoxicity) LOLPE (Lolium perenne (LOLPE); 30 g/ha) | Post-Emergence Herbicidal Activity (Percentage Phytotoxicity) BEAVA ([2]; 30 g/ha) | Post-Emergence Herbicidal Activity (Percentage Phytotoxicity) TRZAW ([6]; 30 g/ha)
20%: Post-Emergence Herbicidal Activity (Percentage Phytotoxicity) ALOMY ([5]; 8 g/ha)
